Source: PubChem BioAssay (NCI)
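Step 1: Grow cells in 96-well plates. Step 2: Expose to compound for 48 hours at 5 concentrations. Step 3: Interpolate endpoints linearly; if unreached, use highest concentration. TGI is the concentration that stops growth completely.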

How the values were obtained:
Assay in all cases: NCI anticancer screen, dose series, 48 h
[1] = tested on: 786-0 renal
[2] = tested on: A498 renal
[3] = tested on: A549 NSCLC
[4] = tested on: ACHN renal
[5] = tested on: BT-549 breast
[6] = tested on: CAKI-1 renal
[7] = tested on: CCRF-CEM leukemia
[8] = tested on: COLO 205 colon
[9] = tested on: DU-145 prostate
[10] = tested on: EKVX NSCLC
[11] = tested on: HCC-2998 colon
[12] = tested on: HCT-116 colon
[13] = tested on: HCT-15 colon
[14] = tested on: HL-60(TB) leukemia
[15] = tested on: HOP-92 NSCLC
[16] = tested on: HS 578T breast
[17] = tested on: HT29 colon
[18] = tested on: K-562 leukemia
[19] = tested on: KM12 colon
[20] = tested on: LOX IMVI melanoma
[21] = tested on: M14 melanoma
[22] = tested on: MALME-3M melanoma
[23] = tested on: MCF7 breast
[24] = tested on: MDA-MB-231 breast
[25] = tested on: MDA-MB-435
[26] = tested on: MDA-N
[27] = tested on: MOLT-4 leukemia
[28] = tested on: NCI-H226 lung
[29] = tested on: NCI-H23 lung
[30] = tested on: NCI-H460 lung
[31] = tested on: NCI-H522 lung
[32] = tested on: NCI/ADR-RES ovarian
[33] = tested on: OVCAR-3 ovarian
[34] = tested on: OVCAR-4 ovarian
[35] = tested on: OVCAR-5 ovarian
[36] = tested on: OVCAR-8 ovarian
[37] = tested on: PC-3 prostate
[38] = tested on: RPMI-8226 leukemia
[39] = tested on: RXF 393 renal
[40] = tested on: SF-268 CNS
[41] = tested on: SF-295 CNS
[42] = tested on: SF-539 CNS
[43] = tested on: SK-MEL-2 melanoma
[44] = tested on: SK-MEL-28 melanoma
[45] = tested on: SK-MEL-5 melanoma
[46] = tested on: SK-OV-3 ovarian
[47] = tested on: SN12C renal
[48] = tested on: SNB-19 CNS
[49] = tested on: SNB-75 CNS
[50] = tested on: SR leukemia
[51] = tested on: SW-620 colon
[52] = tested on: T-47D breast
[53] = tested on: TK-10 renal
[54] = tested on: U251 CNS
[55] = tested on: UACC-257 melanoma
[56] = tested on: UACC-62 melanoma
[57] = tested on: UO-31 renal
[58] = tested on: HOP-62 NSCLC
[59] = tested on: IGROV1 ovarian

Measured: TGI

Cn1c(=O)n2n(c1=O)Cc1cccc3cccc(c13)C2
4.18 µM: [14]
not listed: [58] | [59]
> 100 µM: all other assays above

Oc1c(C2=NNC(c3cccs3)C2)ccc2ccccc12 (configuration not stated)
38.1 µM: [47]
74.5 µM: [16]
60.6 µM: [31]
40 µM: [17] | [25]
35.3 µM: [26]
82 µM: [32]
36.2 µM: [19]
56.4 µM: [45]
37.7 µM: [8]
29.3 µM: [50]
43.4 µM: [30]
38.3 µM: [40]
70.3 µM: [51]
34.2 µM: [11]
69.5 µM: [54]
37.4 µM: [7]
56.5 µM: [2]
99.4 µM: [58]
57.6 µM: [41]
94.2 µM: [36]
51.7 µM: [23]
30.9 µM: [27]
61.7 µM: [9]
30.3 µM: [56]
81.5 µM: [15]
32.5 µM: [21]
43.1 µM: [42]
95.9 µM: [59]
91.2 µM: [24]
30.6 µM: [12]
44 µM: [18]
77.9 µM: [38]
43.5 µM: [33]
not listed: [10] | [14] | [20] | [48]
> 100 µM: all other assays above
